Each structure is given as a SMILES string. Counter-ions that a name gives are not always drawn.

The experiment relates to arteria pulmonalis of the guinea pig. The experiment can be described thus: Relaxing action on potassium-depolarized, CaCl2-contracted spiral strips of guinea pig pulmonary artery (modified method of Godfraind and Kaba and of Schuman et al). It counts as cell-based. The following applies: Cavia porcellus; spiral strips depolarized with 40 mmol/l potassium; contraction initiated with 0.5 mmol/l CaCl2; cumulative addition; mean value of 4 to 6 strips of vessel; read-out: IC50 (concentration of test substance which inhibits the contraction by 50%). The text has this: The pharmacological action of the compounds of the formula I has been determined by a modified method of Godfraind and Kaba (Arch. Int. Pharmacodyn. Ther. 196, (Suppl) 35 to 49, 1972) and of Schuman et al (Naunyn-Schmiedeberg's Arch Pharmacol. 289 409 to 418, 1975). […], spiral strips of the arteria pulmonalis of the guinea pig are depolarized with 40 mmol/l of potassium after equilibration in calcium-free tyrode solution. Addition of 0.5 mmol/l of CaCl2 then initiates a contraction. The relaxing action of the test substance is determined by cumulative addition in concentrations in steps of 1/2 log 10. The concentration of test substance which inhibits the contraction by 50% (=IC50, mol/l) is determined from the concentration/effects curve (abscissa: -log mol/l of test substance, ordinate: % inhibition of the maximum concentration, mean value of 4 to 6 strips of vessel).
Turning to `CC1(C)CCCC(C)(C)N1[n+]1cc(=N)o[n-]1` [a, 3-(2,2,6,6-Tetramethylpiperidino)-sydnonimine hydrochloride], the IC50 stood at 30 µM.
On to `CC(C)N1CC(C)(C)N([n+]2cc(=N)o[n-]2)C(C)(C)C1` [b, 3-(2,2,6,6-Tetramethyl-4-isopropyl-piperazin-1-yl)sydnonimine dihydrochloride], for which the IC50 came to 3 µM.
For the molecule `CC1(C)COCC(C)(C)N1[n+]1cc(=N)o[n-]1` [c, 3-(3,3,5,5-Tetramethylmorpholino)-sydnonimine hydrochloride], the IC50 came out at 100 µM.
For the molecule `CCOC(=O)[N-]c1cn(N2CCOCC2)n[o+]1` [d, N-Ethoxycarbonyl-3-morpholinosydnonimine, reference compound], the IC50 was found to be 300 µM.

For the origin of these results see US4937244A, “Substituted 3-aminosydnonimines, processes for their preparation and their use” (Cassella Aktiengesellschaft, priority 1987, dated 1990).
